Measured values from patent US20050208463A1, “Method of screening drug” (priority 2001, published 2005).

Tests used:
Lrp-like protein [1] = experiment: Gel filtration analysis of changes in assemblies of the Lrp-like protein on mixing with potential ligands; format: biochemical, Pyrococcus sp. OT3; conditions: for change in gel filtration profile of the Lrp-like protein (peak increased): protein monomer approximately 100 μM, at least 30 minutes at room temperature, UV 220 nm
Procedure: Possible changes in assemblies of the Lrp-like protein induced by interaction with amino acids and metabolic intermediates were analyzed in solution using gel filtration.
Gel filtration was carried out with the flow rate […], using a matrix (Protein Pak 125, 7.8×300 mm, Waters) and 50 mM Tris-HCl buffer (pH 7.0) containing 300 mM sodium chloride. Flow of the proteins was monitored by measuring the UV absorbance at 220 nm (LC Module I plus system, Waters). The Lrp-like protein purified by method 2, i.e., the rigorous method, were dissolved in 50 mM Tris-HCl buffer (pH 7.0) containing 200 mM sodium chloride, and kept at −80° C. until it was diluted by 10-fold with 50 mM Tris-HCl buffer (pH 7.0) containing 300 mM sodium chloride, and mixed with each potential ligand for at least 30 minutes at room temperature (about 25° C.). In the mixture, the monomer concentration of the Lrp-like protein was approximately 100 μM.

Lrp-like protein [2] = experiment: Depolarization of crystals of the Lrp-like protein soaked in amino acid solutions; format: binding, Pyrococcus sp. OT3; conditions: crystals soaked in 10 mM amino acid; several hours
Procedure: It has been known that the regularity inside a crystal might be affected, if the structure of the protein changes upon interaction with a ligand which is incorporated from outside the crystal, thereby depolarizing the crystal. Thus, crystals of the Lrp-like protein were soaked into solutions, each containing one of twenty amino acids at the same concentration 10 mM.

Compound | effect on assembling of the Lrp-like protein concluded from gel filtration (Lrp-like protein [1]; amino acid 1 mM) | change in gel filtration profile of the Lrp-like protein (peak increased) (Lrp-like protein [1]; amino acid 1 mM) | depolarization of crystals of the Lrp-like protein (Lrp-like protein [2]) | effect on assembling of the Lrp-like protein concluded from gel filtration (Lrp-like protein [1]; metabolic intermediate 10 mM) | change in gel filtration profile of the Lrp-like protein (peak increased) (Lrp-like protein [1]; metabolic intermediate 10 mM)
C[C@@H](O)[C@H](N)C(=O)O [threonine] | accelerate disassembling of the protein | increasing the fourth peak |  |  | 
C[C@H](N)C(=O)O [alanine] | accelerate disassembling of the protein | increasing the fourth peak |  |  | 
CC(C)[C@H](N)C(=O)O [valine] | intermediate effects | the third peak increased | depolarized |  | 
O=C(O)CC(O)C(=O)O (centres unmarked) [malic acid] |  |  |  | intermediate effects | the third peak increased
CSCC[C@H](N)C(=O)O [methionine] | accelerate disassembling of the protein | increasing the fourth peak | depolarized |  | 
CC(C)C[C@H](N)C(=O)O [leucine] | accelerate disassembling of the protein | increasing the fourth peak | depolarized |  | 
CC(=O)C(=O)O [pyruvic acid] |  |  |  |  | no significant effect was observed
O=C(O)C(O)COP(=O)(O)O (centres unmarked) [3-phosphoglyceric acid] |  |  |  |  | no significant effect was observed
N=C(N)NCCC[C@H](N)C(=O)O [arginine] | accelerate disassembling of the protein | increasing the fourth peak |  |  | 
N[C@@H](Cc1ccccc1)C(=O)O [phenylalanine] | accelerate disassembling of the protein | increasing the fourth peak |  |  | 
CC[C@H](C)[C@H](N)C(=O)O [isoleucine] | accelerates assembling of the protein | increasing the second peak | depolarized |  | 
O=C(O)CC(=O)C(=O)O [oxaloacetic acid] |  |  |  | intermediate effects | the third peak increased
